Structures can show the parent of a compound that is named as a salt.
What was measured:
C. elegans [1] = assay: Chemotaxis assay for volatile components; format: in vivo, Caenorhabditis elegans; conditions: Benzaldehyde 1:200, 2-nonanone undiluted, 60 min, FIG. 8D
Description: Chemotaxis assays were performed on 2% agar square (10 cm) plates containing 5 mM potassium phosphate (pH 6), 1 mM CaCl2, and 1 mM MgSO4. Animals were washed three times in M9 and once in chemotaxis buffer (5 mM potassium phosphate (pH 6), 1 mM CaCl2, and 1 mM MgSO4) and then placed in the middle of the plate (FIG. 8c). Two spots of the collected nematode secretions and two control M9 spots (all 1 μl) were added to opposite sides of the plate, generating gradients of any volatile components in the nematode secretions. Animals were allowed to explore these gradients for 1 h, after which they were counted and the chemotaxis index calculated (FIG. 8d). Benzaldehyde (1:200) and 2-nonanone (undiluted) were used as control attractants and repellents, respectively^25. Nine or more assays were performed on at least three different days. Two-tailed unpaired t-tests were used to compare C. elegans responses to different secretions, and the Bonferroni correction was used to adjust for multiple comparisons.

C. elegans [2] = conditions: literature reference; cited from earlier work
C. elegans [3] = assay: Egg-laying assay; format: in vivo, Caenorhabditis elegans; conditions: predator cue with sertraline (1 mM) for 30 min, egg-laying monitored 60 min after removal, FIG. 4f
Description: Synchronized Day 1 adults were treated with M9 control buffer or concentrated predator cue for 30 min. These animals were transferred to a 2-day lawn of 100 μl OP50 bacteria (OD600=0.5) and allowed to lay eggs. Eggs were counted at the time intervals shown. In each condition and genotype, at least 35 animals were analyzed. Average number of eggs and s.e.m. are presented with two-tailed unpaired t-tests with Bonferroni correction for statistical analysis. To test the effect of sulfolipids on egg-laying behavior, these compounds were dissolved in DMSO and further diluted in M9 to obtain the concentrations indicated. Sertraline effects were analyzed by exposing animals to predator cue with or without sertraline (1 mM) for 30 min.

C. elegans [4] = assay: Single animal avoidance assay (avoidance index); format: in vivo, Caenorhabditis elegans; conditions: for activity of synthetic sulfolipids in the avoidance assay: synthetic compounds, FIG. 10a
Description: Adult C. elegans were exposed to a small volume of a test compound (0.05 μl) near the head of the animal. Upon sensing a repellent, animals initiate a reversal followed by an omega bend. Positive responses to a test compound were scored only if they occurred within 4 s. Results are shown as the avoidance index, which is the ratio of number of positive responses to the total number of trials. Each animal is tested thrice and data is presented as average of the animals tested on at least 3 days (FIGS. 1-4 and FIGS. 8-13). For Data in FIG. 18b, animals were pre-treated with various drugs at 100 μM for 30 min and then their responses to predator cue were analyzed. Each assay was performed in triplicate (5 animals per condition) and on at least 3 different days […]. For Data shown in FIG. 4, animals were pre-treated with 1 mM Sertraline (Sigma) or M9 control for 3 min before being tested for their responses in the avoidance assay. We also performed additional controls to test whether an animal's response to the three repellent trials were independent.
Two-tailed unpaired t-tests were used to compare different strains, genotypes, and conditions, and the Bonferroni correction was used to adjust for multiple comparisons. Avoidance indices of all strains tested and controls are shown in Supplementary Table S7 of Liu et al., Nature Communications 9: 1128 (2018)).
Adult nematodes were exposed to a small volume of a test compound (0.05 μl) near the head of the animal. Upon sensing a repellent, animals initiate a reversal followed by an omega bend. Positive responses to a test compound were scored only if they occurred within 4 s. Results are shown as the avoidance index, which is the ratio of number of positive responses to the total number of trials. Each animal is tested thrice and data is presented as average of the animals tested on at least 3 days.

O=Cc1ccccc1 [Benzaldehyde]
chemotaxis response to control attractant and repellent (C. elegans [1]): strong responses

CCCCCCCCCCCCOS(=O)(=O)[O-].[Na+] [SDS, sodium dodecyl sulfate]
C. elegans avoidance cue potency (C. elegans [2]): potent

CCCCCCCC(C)=O [Sulfolipid 2-nonanone, 2-nonanone]
chemotaxis response to control attractant and repellent (C. elegans [1]): strong responses

CN[C@H]1CC[C@@H](c2ccc(Cl)c(Cl)c2)c2ccccc21 [sertraline]
sertraline effect on predator cue-induced egg-laying response (C. elegans [3]): reduced the longer-lasting egg-laying response
duration of the drug effects (decay of the sertraline effect) (C. elegans [4]; predator cue, FIG. 13C legend): about 30 minutes
concentration dependence of suppression of avoidance behavior (C. elegans [4]; predator cue, FIG. 13b): dependent on drug concentration
duration of suppression of avoidance after the drug was removed (C. elegans [4]; predator cue, FIG. 13c): at least 30 min
sertraline modulation of avoidance in eat-4 mutants (C. elegans [4]; predator cue, eat-4 (vesicular glutamate transporter) mutants, FIG. 4c): significant sertraline-induced modulation of avoidance behavior
sertraline effect on behavior of tax-4 or ocr-2 mutants (C. elegans [4]; predator cue, tax-4 or ocr-2 mutants, FIG. 4b): no detectable effect
sertraline attenuation in unc-25 mutants (C. elegans [4]; predator cue, unc-25 (glutamic acid decarboxylase) mutants, FIG. 4c): defective in sertraline attenuation
sertraline effect on avoidance to predator cue (C. elegans [4]; wild-type, pre-treated with sertraline (1 mM), FIG. 4a): attenuated avoidance
sertraline effect on avoidance responses to fructose (C. elegans [4]; wild-type, pre-treated with sertraline, FIG. 4a): attenuated avoidance responses
sertraline effect on avoidance to purified sulfolipids (C. elegans [4]; wild-type, pre-treated with sertraline, FIG. 13a): attenuated avoidance

CC(C)CCC(CCCCCCCCCO)OS(=O)(=O)O (stereo not drawn) [sufal #1, 14-hydroxy-2-methyltetradecan-5-yl Hydrogen Sulfate]
activity of synthetic sulfolipids in the avoidance assay (C. elegans [4]): accounted for most of the isolated activity

CC(C)CCCC(CCCCCCCCO)OS(=O)(=O)O (stereo not drawn) [sufal #2, 14-hydroxy-2-methyltetradecan-6-yl Hydrogen Sulfate]
activity of synthetic sulfolipids in the avoidance assay (C. elegans [4]): accounted for most of the isolated activity
